Measured values reported in patent publication US9439909B2, “Compositions and methods for sensitizing a neoplastic cell to radiation” (The Broad Institute, Inc., priority 2013, dated 2016).

Experiments:
[1] = Cellular viability of LC-1/SQSF cells after incubation with PI3K inhibitors; conditions: human, LC-1/SQSF cells stably expressing hNQO1-ARE-luc
Method: (§5) To test this, LC-1/SQSF cells were generated that stably express hNQO1-ARE-luc, containing cis-acting antioxidant response regulatory elements in the 5′-flanking region of NAD(P)H:quinone oxidoreductase (NQO1) (19), a gene induced by NRF2. Luciferase activity was measured in LC-1/SQSF, hNQO1-ARE-luc cells after incubation with LY 294002, NVP-BKM120, or TGX-221. […] Cellular viability was measured after incubation with LY 294002, NVP-BKM120, or TGX-221.

LC-1/SQSF cells [2] = experiment: as above; conditions: LC-1/SQSF, 48 hours
Method: as §5

SQ-1 cells = experiment: Clonogenic survival, SQ-1 cells; type: cell-based, human; conditions: SQ-1 (NFE2L2 and KEAP1 wild type), drug 24 hours before radiation
Method: (§1) Lung SqCC cell lines from the Cancer Cell Line Encyclopedia (CCLE) were authenticated per CCLE protocol (14) and grown in recommended media supplemented with 10% fetal bovine serum (Benchmark, Calif.) and 100 U/mL Penicillin, 100 μg/mL of Streptomycin, and 292 μg/mL L-Glutamine (Corning, N.Y.). All cultures were maintained at 37° C. in a humidified 5% CO2 atmosphere and tested to ensure absence of Mycoplasma. Plates were treated with 0 Gy (no radiation) or with 1-10 Gy of γ-radiation delivered at 0.91 Gy/min with a ^137Cs source using a GammaCell 40 Exactor (Best Theratronics; Ontario, Canada).
(§2) Cells were plated at appropriate dilutions, irradiated, and incubated for 10-14 days for colony formation. For chemical radiosensitization measurements, drug was added 24 hours prior to irradiation. Colonies were fixed in a solution of acetic acid and methanol 1:3 (v/v) and stained with 0.5% (w/v) crystal violet as previously described (15). A colony was defined to consist of 50 cells or greater. Colonies were counted digitally using ImageJ software as described (16). Integration of survival as a function of dose, or area under the curve, was calculated using Prism, GraphPad Software (La Jolla, Calif.).

LC-1/SQSF cells [3] = experiment: Clonogenic survival, LC-1/SQSF cells; type: cell-based, human
Method: as §1, §2

A549 cells = experiment: Clonogenic survival, A549 cells; type: cell-based, human; conditions: A549, drug 24 hours before radiation
Method: as §1, §2

RERF-LC-AI cells = experiment: Clonogenic survival, RERF-LC-AI cells; type: cell-based, human
Method: as §1, §2

HCC15 cells = experiment: Clonogenic survival, HCC15 cells; type: cell-based, human; conditions: HCC15 (KEAP1 mutant), drug 24 hours before radiation
Method: as §1, §2

NRF2 activity = experiment: hNQO1-ARE-luc luciferase reporter assay in LC-1/SQSF cells; type: cell-based, human; conditions: 24 hours
Method: LC-1/SQSF, hNQO1-ARE-luc cells were produced as follows. hQR41-ARE sequence (19) and firefly luciferase-PEST sequence (Promega, WI) was cloned into plenti6/BLOCK-iT-DEST lentivirus backbone (Invitrogen, NY) at the restriction sites of NcoI and Hind III. The engineered region was sequence verified and matched 100% of the expected sequences. The plasmid was stably infected to the LC-1/SQSF cell line, selected and maintained in 5 μg/ml Blasticidin in the recommended media.

NRF2 protein [4] = experiment: Immunoblot of NRF2 protein level in LC-1/SQSF cells; type: cell-based, human; conditions: for expression of endogenous mutant NRF2 compared with control shNTC: Doxycycline induction 24 hours
Method: (§3) Anti-NRF2 antibody (ab31163) was from Abcam (Cambridge, Mass.) (17). NVP-BKM120 and TGX-221 was from Selleck (Houston, Tex.). LY 294002 was from Cell Signaling Technology (Beverly, Mass.).
(§4) Construction of the retroviral expression vector of short hairpin RNA (shRNA) was carried out as described (18). The shRNA-targeted sequences were as follows: NRF2-1 shRNA, […] (SEQ ID NO: 1); NRF2-2 shRNA, […] (SEQ ID NO: 2). The control vector contains nontargeting shRNA sequence. The entry vectors were recombined with pLKO-Tet-ON-puro by LR reactions (Invitrogen, Carlsbad, Calif.), in accordance with the manufacturer's instructions. After infection (multiplicity of infection >1), cells were selected and maintained in the presence of 1 μg/ml puromycin.

LC-1/SQSF cells [5] = system: LC-1/SQSF cells
Method: as §5

NRF2 protein [6] = experiment: Immunoblot of NRF2 protein level in RERF-LC-AI cells; type: cell-based, human; conditions: for NRF2 protein level / expression of endogenous NRF2 compared with control shNTC: RERF-LC-AI, Doxycycline induction 24 hours
Method: as §3, §4

O=c1cc(N2CCOCC2)oc2c(-c3ccccc3)cccc12 [LY 294002]
viability at 24 h [1]: > 90%

Nc1cc(C(F)(F)F)c(-c2cc(N3CCOCC3)nc(N3CCOCC3)n2)cn1 [NVP-BKM120, 5-(2,6-dimorpholinopyrimidin-4-yl)-4-(trifluoromethyl)pyridin-2-amine]
decrement in cellular viability (LC-1/SQSF cells [2]): mirrored the effect on NRF2 activity | viability at 24 h [1]: > 90% | synergy between drug and radiation, clonogenic survival (SQ-1 cells): significantly less synergy | clonogenic survival with drug and radiation compared to control (0 Gy) (LC-1/SQSF cells [3]; LC-1/SQSF (NFE2L2 mutant), drug 24 hours before radiation): synergistic decrement in clonogenic survival | clonogenic survival with drug and radiation compared to control (0 Gy) (A549 cells): synergistic decrement in clonogenic survival | synergy between drug and radiation, clonogenic survival (RERF-LC-AI cells; RERF-LC-AI (NFE2L2 and KEAP1 wild type), drug 24 hours before radiation): significantly less synergy | clonogenic survival with drug and radiation compared to control (0 Gy) (HCC15 cells): synergistic decrement in clonogenic survival | decrement in NRF2 activity (luciferase activity) (NRF2 activity): significant decrement in NRF2 activity | decrement in NRF2 protein level (NRF2 protein [4]; 24 hours): significant decrement in NRF2 protein level

Cc1cc(C(C)Nc2ccccc2)c2nc(N3CCOCC3)cc(=O)n2c1 (stereo not drawn) [TGX-221]
decrement in cellular viability (LC-1/SQSF cells [2]): mirrored the effect on NRF2 activity | viability (LC-1/SQSF cells [5]): > 90%

CC(C)(C)c1cc(O)ccc1O [tBHQ, tert-Butylhydroquinone]
NRF2 stabilization (NRF2 protein level) (NRF2 protein [6]; RERF-LC-AI cells, -/+ tBHQ): NRF2 stabilization

shNRF2-1: lentiviral-inducible NRF2-targeted shRNA, target sequence AGAGCAAGATTTAGATCATTT (SEQ ID NO: 1) (the letters are possibly those of the target site)
sensitivity to radiation versus control shNTC cells, clonogenic survival (LC-1/SQSF cells [3]; LC-1/SQSF, 2, 4, 6 Gy after Doxycycline 24 hours): more sensitive to radiation | NRF2 protein level / expression of endogenous NRF2 compared with control shNTC (NRF2 protein [6]): minimal affect | expression of endogenous mutant NRF2 compared with control shNTC (NRF2 protein [4]): significantly reduced

shNRF2-2: lentiviral-inducible NRF2-targeted shRNA, target sequence GCTCCTACTGTGATGTGAAAT (SEQ ID NO: 2) (the letters are possibly those of the target site)
clonogenic capacity after lentiviral-induction (LC-1/SQSF cells [3]; LC-1/SQSF, no radiation): significantly diminished clonogenic capacity | NRF2 protein level / expression of endogenous NRF2 compared with control shNTC (NRF2 protein [6]): significantly reduced | radiation sensitivity, clonogenic survival (RERF-LC-AI cells; RERF-LC-AI, 2, 4, 6 Gy after Doxycycline 24 hours): did not result in any observable decrease | clonogenic capacity (RERF-LC-AI cells; RERF-LC-AI, no radiation): did not result in any observable decrease | expression of endogenous mutant NRF2 compared with control shNTC (NRF2 protein [4]): significantly reduced
